Assay results: patent US8901118B2, “Compounds and methods for kinase modulation, and indications therefor” (Plexxikon Inc., priority 2010, dated 2014)

What was measured:
CYP1A2 = molecular target: T1, CYP1A2 (Homo sapiens, UniProt P05177); assay: CYP1A2 inhibition (fluorescent substrate CEC); format: in vitro ADME; conditions: read-out: Cyp IC50 1A2
T1 sequence (P05177 1-516): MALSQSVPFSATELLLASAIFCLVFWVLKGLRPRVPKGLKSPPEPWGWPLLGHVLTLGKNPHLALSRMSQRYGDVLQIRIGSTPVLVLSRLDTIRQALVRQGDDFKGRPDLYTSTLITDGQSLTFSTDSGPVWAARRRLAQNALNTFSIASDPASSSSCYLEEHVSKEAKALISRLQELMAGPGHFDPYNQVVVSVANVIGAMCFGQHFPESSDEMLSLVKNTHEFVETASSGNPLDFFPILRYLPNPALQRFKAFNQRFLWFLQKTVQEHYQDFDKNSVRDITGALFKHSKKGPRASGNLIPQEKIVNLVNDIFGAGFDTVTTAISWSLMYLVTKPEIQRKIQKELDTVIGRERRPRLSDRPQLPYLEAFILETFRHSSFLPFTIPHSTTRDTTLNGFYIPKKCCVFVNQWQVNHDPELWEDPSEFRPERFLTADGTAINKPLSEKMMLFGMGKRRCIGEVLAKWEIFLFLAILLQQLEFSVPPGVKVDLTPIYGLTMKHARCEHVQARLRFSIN
Procedure, shortened: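 Test compounds, 10-point 1:1 serial dilutions in NADPH-regenerating cofactor mix, were preincubated 10 min at 37° C before recombinant enzyme and fluorogenic substrate reactions at 37° C (CYP1A2 15 min; CYP2C9 45 min; CYP2C19, 2D6 30 min). Product fluorescence was read at 409 ex with 460 em (1A2, 2C19) or 530 em (2C9, 2D6), and IC50 fitted from signal versus concentration.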

[1] = Relative solubility by turbidity in aqueous buffers (pH 1.5, 4.5, 6.8, 7.4); format: physicochemical; conditions: for turbidity threshold (L, M, H) 1.4: pH 1.5 (SGF); for turbidity threshold (L, M, H) 4.5: pH 4.5 (SIF); for turbidity threshold (L, M, H) 6.8: pH 6.8 (SIF); for turbidity threshold (L, M, H) 7.4: pH 7.4 (HEPES)
Procedure, shortened: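 Twofold DMSO dilutions of a 25 mM stock were spiked into SGF (0.5M NaCl, pH 1.5), SIF (0.05M NaH2PO4, pH 4.5 and 6.8) or HEPES buffer (10 mM HEPES, 150 mM NaCl, pH 7.4). Absorbance was read at 490, 535 and 650 nm. The endpoint is the concentration crossing O.D. 0.01, averaged across wavelengths.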

Fms kinase = Fms kinase (Homo sapiens, UniProt P07333); assay: Fms kinase biochemical activity assay (AlphaScreen, biotin-(E4Y)10 phosphorylation); conditions: 100 μM ATP; read-out: Biochemical Inhibition IC50 Fms
Procedure, shortened: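 Fms kinase (1 ng/well) phosphorylating 30 nM biotin-(E4Y)10 with 100 μM ATP in 25 mM Hepes pH 7.5, MgCl2/MnCl2, 5% DMSO, 20 min at 30 °C. Phosphotyrosine detected by AlphaScreen streptavidin donor and PY20 acceptor beads; IC50 from signal versus compound concentration.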

Chain of Fms kinase (P07333 20-972): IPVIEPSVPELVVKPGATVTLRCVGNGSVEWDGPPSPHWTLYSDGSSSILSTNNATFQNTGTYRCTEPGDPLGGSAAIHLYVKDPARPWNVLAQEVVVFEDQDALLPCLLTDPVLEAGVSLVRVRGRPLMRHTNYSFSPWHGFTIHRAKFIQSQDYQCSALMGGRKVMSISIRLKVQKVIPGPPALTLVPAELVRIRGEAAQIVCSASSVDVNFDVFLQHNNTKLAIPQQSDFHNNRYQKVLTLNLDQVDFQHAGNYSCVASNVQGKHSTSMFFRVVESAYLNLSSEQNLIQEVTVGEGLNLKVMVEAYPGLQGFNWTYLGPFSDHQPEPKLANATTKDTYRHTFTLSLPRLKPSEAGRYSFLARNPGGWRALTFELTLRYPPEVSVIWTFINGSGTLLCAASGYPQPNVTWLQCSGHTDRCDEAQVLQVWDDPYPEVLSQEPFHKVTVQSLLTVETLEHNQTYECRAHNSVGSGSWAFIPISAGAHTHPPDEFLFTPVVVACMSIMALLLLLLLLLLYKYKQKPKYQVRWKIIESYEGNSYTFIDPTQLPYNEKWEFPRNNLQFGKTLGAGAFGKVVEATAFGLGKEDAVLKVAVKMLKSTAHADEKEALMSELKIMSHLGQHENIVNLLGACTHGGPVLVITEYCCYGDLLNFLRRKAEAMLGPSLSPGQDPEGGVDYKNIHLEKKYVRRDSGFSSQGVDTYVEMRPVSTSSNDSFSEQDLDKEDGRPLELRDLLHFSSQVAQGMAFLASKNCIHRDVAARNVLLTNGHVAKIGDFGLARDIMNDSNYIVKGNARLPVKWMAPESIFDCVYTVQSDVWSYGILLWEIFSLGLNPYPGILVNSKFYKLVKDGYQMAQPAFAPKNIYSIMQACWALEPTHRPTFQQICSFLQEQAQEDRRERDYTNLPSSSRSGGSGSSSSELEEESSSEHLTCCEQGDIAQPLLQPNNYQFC

SMILES	IC50 (CYP1A2)	turbidity threshold (L, M, H) 1.4 [1]	turbidity threshold (L, M, H) 4.5 [1]	turbidity threshold (L, M, H) 6.8 [1]	turbidity threshold (L, M, H) 7.4 [1]	IC50 (Fms kinase)
CCc1ccc(Nc2ccc(C(=O)c3c[nH]c4ncnc(NC5CCCC5)c34)c(F)n2)cn1 [Compound P-4099, [4-(cyclopentylamino)-7H-pyrrolo[2,3-d]pyrimidin-5-yl]-[6-[(6-ethyl-3-pyridyl)amino]-2-fluoro-3-pyridyl]methanone]	< 5 µM	H (high solubility if the threshold concentration is >250 μm)	L (low solubility if the threshold concentration is <31.3 μM)	L (low solubility if the threshold concentration is <31.3 μM)	L (low solubility if the threshold concentration is <31.3 μM)	< 0.1 µM
CCCCNc1ncnc2[nH]cc(C(=O)c3ccc(Nc4ccc(CC)nc4)nc3F)c12 [Compound P-4100, [4-(butylamino)-7H-pyrrolo[2,3-d]pyrimidin-5-yl]-[6-[(6-ethyl-3-pyridyl)amino]-2-fluoro-3-pyridyl]methanone]	< 5 µM	H (high solubility if the threshold concentration is >250 μm)	M (moderate solubility if the threshold concentration is 31.3 μM to 250 μM)	M (moderate solubility if the threshold concentration is 31.3 μM to 250 μM)	M (moderate solubility if the threshold concentration is 31.3 μM to 250 μM)	< 0.1 µM
CC(C)Nc1ncnc2[nH]cc(C(=O)c3ccc(NC4CCCCC4)nc3F)c12 [Compound P-4101, [6-(cyclohexylamino)-2-fluoro-3-pyridyl]-[4-(isopropylamino)-7H-pyrrolo[2,3-d]pyrimidin-5-yl]methanone]	> 10 µM	M (moderate solubility if the threshold concentration is 31.3 μM to 250 μM)	L (low solubility if the threshold concentration is <31.3 μM)	L (low solubility if the threshold concentration is <31.3 μM)	L (low solubility if the threshold concentration is <31.3 μM)	< 0.1 µM
CNc1ncnc2[nH]cc(C(=O)c3ccc(NC4CCCCC4)nc3F)c12 [Compound P-4102, [6-(cyclohexylamino)-2-fluoro-3-pyridyl]-[4-(methylamino)-7H-pyrrolo[2,3-d]pyrimidin-5-yl]methanone]	< 5 µM	H (high solubility if the threshold concentration is >250 μm)	M (moderate solubility if the threshold concentration is 31.3 μM to 250 μM)	M (moderate solubility if the threshold concentration is 31.3 μM to 250 μM)	M (moderate solubility if the threshold concentration is 31.3 μM to 250 μM)	< 0.1 µM
COc1cncc(Nc2ccc(C(=O)c3c[nH]c4ncnc(NCC(F)(F)F)c34)c(F)n2)c1 [Compound P-4103, [2-fluoro-6-[(5-methoxy-3-pyridyl)amino]-3-pyridyl]-[4-(2,2,2-trifluoroethylamino)-7H-pyrrolo[2,3-d]pyrimidin-5-yl]methanone]	< 5 µM	L (low solubility if the threshold concentration is <31.3 μM)	M (moderate solubility if the threshold concentration is 31.3 μM to 250 μM)	M (moderate solubility if the threshold concentration is 31.3 μM to 250 μM)	M (moderate solubility if the threshold concentration is 31.3 μM to 250 μM)	< 1 µM
COc1cncc(Nc2ccc(C(=O)c3c[nH]c4ncnc(NC5CCCCC5)c34)c(F)n2)c1 [Compound P-4104, [4-(cyclohexylamino)-7H-pyrrolo[2,3-d]pyrimidin-5-yl]-[2-fluoro-6-[(5-methoxy-3-pyridyl)amino]-3-pyridyl]methanone]	> 10 µM	M (moderate solubility if the threshold concentration is 31.3 μM to 250 μM)	L (low solubility if the threshold concentration is <31.3 μM)	L (low solubility if the threshold concentration is <31.3 μM)	L (low solubility if the threshold concentration is <31.3 μM)	< 1 µM
CCCNc1ncnc2[nH]cc(C(=O)c3ccc(Nc4cncc(OC)c4)nc3F)c12 [Compound P-4105, [2-fluoro-6-[(5-methoxy-3-pyridyl)amino]-3-pyridyl]-[4-(propylamino)-7H-pyrrolo[2,3-d]pyrimidin-5-yl]methanone]	> 10 µM	M (moderate solubility if the threshold concentration is 31.3 μM to 250 μM)	M (moderate solubility if the threshold concentration is 31.3 μM to 250 μM)	M (moderate solubility if the threshold concentration is 31.3 μM to 250 μM)	M (moderate solubility if the threshold concentration is 31.3 μM to 250 μM)	< 0.1 µM
COc1cncc(Nc2ccc(C(=O)c3c[nH]c4ncnc(NC(C)C)c34)c(F)n2)c1 [Compound P-4106, [2-fluoro-6-[(5-methoxy-3-pyridyl)amino]-3-pyridyl]-[4-(isopropylamino)-7H-pyrrolo[2,3-d]pyrimidin-5-yl]methanone]	< 5 µM	M (moderate solubility if the threshold concentration is 31.3 μM to 250 μM)	M (moderate solubility if the threshold concentration is 31.3 μM to 250 μM)	L (low solubility if the threshold concentration is <31.3 μM)	M (moderate solubility if the threshold concentration is 31.3 μM to 250 μM)	< 0.1 µM
COc1cncc(Nc2ccc(C(=O)c3c[nH]c4ncnc(NC5CC5)c34)c(F)n2)c1 [Compound P-4107, [4-(cyclopropylamino)-7H-pyrrolo[2,3-d]pyrimidin-5-yl]-[2-fluoro-6-[(5-methoxy-3-pyridyl)amino]-3-pyridyl]methanone]	< 5 µM	M (moderate solubility if the threshold concentration is 31.3 μM to 250 μM)	M (moderate solubility if the threshold concentration is 31.3 μM to 250 μM)	M (moderate solubility if the threshold concentration is 31.3 μM to 250 μM)	M (moderate solubility if the threshold concentration is 31.3 μM to 250 μM)	< 0.1 µM
CNc1ncnc2[nH]cc(C(=O)c3ccc(Nc4cncc(OC)c4)nc3F)c12 [Compound P-4108, [2-fluoro-6-[(5-methoxy-3-pyridyl)amino]-3-pyridyl]-[4-(methylamino)-7H-pyrrolo[2,3-d]pyrimidin-5-yl]methanone]	< 5 µM	H (high solubility if the threshold concentration is >250 μm)	M (moderate solubility if the threshold concentration is 31.3 μM to 250 μM)	M (moderate solubility if the threshold concentration is 31.3 μM to 250 μM)	M (moderate solubility if the threshold concentration is 31.3 μM to 250 μM)	< 0.1 µM
CC(C)Nc1ncnc2[nH]cc(C(=O)c3ccc(NC4CCCCC4)nc3Cl)c12 [Compound P-4109, [2-chloro-6-(cyclohexylamino)-3-pyridyl]-[4-(isopropylamino)-7H-pyrrolo[2,3-d]pyrimidin-5-yl]methanone]	> 10 µM	L (low solubility if the threshold concentration is <31.3 μM)	L (low solubility if the threshold concentration is <31.3 μM)	L (low solubility if the threshold concentration is <31.3 μM)	L (low solubility if the threshold concentration is <31.3 μM)	< 0.1 µM
CNc1ncnc2[nH]cc(C(=O)c3ccc(NC4CCCCC4)nc3Cl)c12 [Compound P-4110, [2-chloro-6-(cyclohexylamino)-3-pyridyl]-[4-(methylamino)-7H-pyrrolo[2,3-d]pyrimidin-5-yl]methanone]	< 5 µM	M (moderate solubility if the threshold concentration is 31.3 μM to 250 μM)	L (low solubility if the threshold concentration is <31.3 μM)	L (low solubility if the threshold concentration is <31.3 μM)	L (low solubility if the threshold concentration is <31.3 μM)	< 0.1 µM
